Test results as given in ChEMBL document CHEMBL5532661, “Discovery of a Novel Glucagon-like Peptide-1 (GLP-1) Analogue from Bullfrog and Investigation of Its Potential for Designing GLP-1-Based Multiagonists” (J Med Chem, 2024).
The source made the active and inactive calls. No cut-off for these calls is given here. Numbered stars: 1 amine (or outer) side, 2 acyl side, 3 side chain; on linkers, the order of the positions; unused ones are H or OH. Side chains are listed from the residue outwards. Peptide text beside a SMILES is read from it. * marks the point of attachment. γGlu = O=C(O)[C@H](CCC(=O)[*:2])N[*:1]; Palmitoyl = CCCCCCCCCCCCCCCC(=O)*

Tests used:
Mus musculus [1] = test: Reduction in body weight in DIO mouse at 30 nmol/kg, sc treated twice a day measured after 21 days; assay type: functional; parameters: scale not given: the % may be the effect or the level left; settings: time 21 day
Mus musculus [2] = test: Anorexigenic effect in ICR mouse assessed as decrease in food intake at 30 nmol/kg, sc measured upto 72 hrs by acute food intake study; assay type: functional, organism-based
[3] = molecular target: T1, Glucagon-like peptide 1 receptor (Homo sapiens, UniProt P43220); test: Agonist activity at human GLP-1 receptor expressed in HEK293 cells assessed as cAMP level by measuring relative percent (GLP-1 EC50/compound EC50) measured after 60 mins by HTRF based assay relative to GLP-1; assay type: functional, cell-based; settings: filed as agonist
Mus musculus [4] = test: Reduction in serum AST level in DIO mouse at 30 nmol/kg, sc treated twice a day measured after 21 days; assay type: functional, organism-based; settings: time 21.0 day
Mus musculus [5] = test: Reduction in hepatic lipid content in DIO mouse at 30 nmol/kg, sc treated twice a day measured after 21 days by H and E staining based assay; assay type: functional, organism-based; settings: time 21.0 day
Mus musculus [6] = test: Hypoglycemic effect in ICR mouse treated with 3 g/kg glucose assessed as reduction in blood glucose level at 100 nmol/kg, sc measured upto 120 mins by acute glucose lowering test; assay type: functional, organism-based
Mus musculus [7] = test: Anorexigenic effect in sc dosed ICR mouse assessed as decrease in food intake measured upto 72 hrs by acute food intake study; assay type: functional, organism-based; settings: dose 10-100 nmol/kg
Mus musculus [8] = test: Reduction in blood glucose level in non-fasting DIO mouse at 30 nmol/kg, sc treated twice a day measured after 21 days by glucose tolerance test; assay type: functional, organism-based; settings: time 21.0 day
[9] = molecular target: Glucagon receptor (Mus musculus) (UniProt Q61606); test: Agonist activity at mouse GCGR receptor expressed in HEK293 cells assessed as cAMP level measured after 60 mins by HTRF based assay; assay type: functional, cell-based; settings: filed as agonist
Mus musculus [10] = test: Hypoglycemic effect in ICR mouse treated with 3 g/kg glucose assessed as reduction in blood glucose level at 10 nmol/kg, sc measured upto 120 mins by acute glucose lowering test; assay type: functional, organism-based
Mus musculus [11] = test: Reduction in feed intake in DIO mouse at 30 nmol/kg, sc treated twice a day measured after 21 days; assay type: functional, organism-based; settings: time 21.0 day
Mus musculus [12] = test: Antihyperglycemic effect in DIO mouse assessed as antihyperglycemic duration by measuring blood glucose at 30 nmol/kg, sc administered twice daily measured after 72 hrs by hypoglycemic duration assay; assay type: functional, organism-based
Mus musculus [13] = test: Anorexigenic effect in ICR mouse assessed as decrease in food intake at 10 nmol/kg, sc measured upto 72 hrs by acute food intake study; assay type: functional, organism-based
Glucagon receptor [14] = molecular target: T2, Glucagon receptor (Homo sapiens, UniProt P47871); test: Agonist activity at human GCGR expressed in HEK293 cells assessed as cAMP level by measuring relative percent (glucagon EC50/compound EC50) measured after 60 mins by HTRF based assay relative to glucagon; assay type: functional, cell-based; settings: filed as agonist
Mus musculus [15] = test: Antihyperglycemic effect in DIO mouse assessed as antihyperglycemic duration by measuring blood glucose at 30 nmol/kg, sc measured after 12 to 24 hrs by hypoglycemic duration assay; assay type: functional, organism-based; settings: time 12-24 hrs
Mus musculus [16] = test: Reduction in total fat mass in DIO mouse at 30 nmol/kg, sc treated twice a day measured after 21 days; assay type: functional, organism-based; settings: time 21.0 day
[17] = molecular target: T1, Glucagon-like peptide 1 receptor; test: Agonist activity at human GLP-1 receptor expressed in HEK293 cells assessed as cAMP level measured after 60 mins by HTRF based assay; assay type: functional, cell-based
Glucagon receptor [18] = molecular target: T2, Glucagon receptor; test: Agonist activity at human GCGR expressed in HEK293 cells assessed as cAMP level measured after 60 mins by HTRF based assay; assay type: functional, cell-based
[19] = molecular target: T1, Glucagon-like peptide 1 receptor; test: Potency index, ratio of Semaglutide EC50 to test compound EC50 for agonist activity at human GLP-1 receptor expressed in HEK293 cells assessed as cAMP level measured after 60 mins by HTRF based assay; assay type: functional, cell-based; settings: filed as agonist
Mus musculus [20] = test: Anorexigenic effect in ICR mouse assessed as decrease in food intake at 30 nmol/kg, sc measured at 48 hrs by acute food intake study; assay type: functional, organism-based
[21] = molecular target: T3, Glucagon-like peptide 1 receptor (Mus musculus) (UniProt O35659); test: Agonist activity at mouse GLP-1 receptor expressed in HEK293 cells assessed as cAMP level measured after 60 mins by HTRF based assay; assay type: functional, cell-based; settings: filed as agonist
T3 sequence (whole entry): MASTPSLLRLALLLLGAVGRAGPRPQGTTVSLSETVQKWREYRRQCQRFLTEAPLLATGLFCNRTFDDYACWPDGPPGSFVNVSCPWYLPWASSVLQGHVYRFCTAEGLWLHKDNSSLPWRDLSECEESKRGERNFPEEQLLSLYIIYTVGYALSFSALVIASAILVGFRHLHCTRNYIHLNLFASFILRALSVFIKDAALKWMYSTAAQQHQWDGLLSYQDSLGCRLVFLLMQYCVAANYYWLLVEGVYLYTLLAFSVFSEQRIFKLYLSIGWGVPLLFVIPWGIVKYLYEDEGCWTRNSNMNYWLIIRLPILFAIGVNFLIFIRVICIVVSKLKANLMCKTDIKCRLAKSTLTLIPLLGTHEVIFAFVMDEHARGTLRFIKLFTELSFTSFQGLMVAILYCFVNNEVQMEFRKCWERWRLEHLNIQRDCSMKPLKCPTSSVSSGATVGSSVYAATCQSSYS

Mus musculus [22] = test: Reduction in serum ALT level in DIO mouse at 30 nmol/kg, sc treated twice a day measured after 21 days; assay type: functional, organism-based; settings: time 21.0 day
Glucagon receptor [23] = molecular target: T2, Glucagon receptor; test: Potency index, ratio of glucagon EC50 to test compound EC50 for agonist activity at human GCGR expressed in HEK293 cells assessed as cAMP level measured after 60 mins by HTRF based assay; assay type: functional, cell-based; settings: filed as agonist
Mus musculus [24] = test: Reduction in total cholesterol in DIO mouse at 30 nmol/kg, sc treated twice a day measured after 21 days; assay type: functional, organism-based; settings: time 21.0 day
Mus musculus [25] = test: Reduction in serum triglyceride in DIO mouse at 30 nmol/kg, sc treated twice a day measured after 21 days; assay type: functional, organism-based; settings: time 21.0 day
Mus musculus [26] = test: Antihyperglycemic effect in DIO mouse assessed as prolonged antihyperglycemic duration by measuring blood glucose at 100 nmol/kg, sc; assay type: functional, organism-based
[27] = molecular target: T3, Glucagon-like peptide 1 receptor (Mus musculus); test: Potency index, ratio of GLP-1 EC50 to test compound EC50 for agonist activity at mouse GLP-1 receptor expressed in HEK293 cells assessed as cAMP level measured after 60 mins by HTRF based assay; assay type: functional, cell-based; settings: filed as agonist
Mus musculus [28] = test: Hypoglycemic effect in ICR mouse treated with 3 g/kg glucose assessed as reduction in blood glucose level at 30 nmol/kg, sc measured upto 120 mins pretreated with GLP-1R antagonist by OGTT; assay type: functional, organism-based

T2 sequence (P47871 whole entry): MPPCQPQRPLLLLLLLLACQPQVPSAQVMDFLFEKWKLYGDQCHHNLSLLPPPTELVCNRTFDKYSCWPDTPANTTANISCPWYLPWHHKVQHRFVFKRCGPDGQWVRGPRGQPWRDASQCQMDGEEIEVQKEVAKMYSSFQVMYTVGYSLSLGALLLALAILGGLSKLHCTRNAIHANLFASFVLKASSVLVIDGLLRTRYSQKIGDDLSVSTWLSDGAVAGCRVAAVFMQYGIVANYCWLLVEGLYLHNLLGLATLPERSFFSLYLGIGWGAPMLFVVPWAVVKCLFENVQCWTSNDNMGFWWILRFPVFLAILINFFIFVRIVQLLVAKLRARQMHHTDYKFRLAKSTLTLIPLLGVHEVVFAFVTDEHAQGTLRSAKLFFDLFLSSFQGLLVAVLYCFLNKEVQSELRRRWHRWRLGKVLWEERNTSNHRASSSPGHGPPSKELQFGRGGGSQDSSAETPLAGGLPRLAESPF
T1 sequence (P43220 whole entry): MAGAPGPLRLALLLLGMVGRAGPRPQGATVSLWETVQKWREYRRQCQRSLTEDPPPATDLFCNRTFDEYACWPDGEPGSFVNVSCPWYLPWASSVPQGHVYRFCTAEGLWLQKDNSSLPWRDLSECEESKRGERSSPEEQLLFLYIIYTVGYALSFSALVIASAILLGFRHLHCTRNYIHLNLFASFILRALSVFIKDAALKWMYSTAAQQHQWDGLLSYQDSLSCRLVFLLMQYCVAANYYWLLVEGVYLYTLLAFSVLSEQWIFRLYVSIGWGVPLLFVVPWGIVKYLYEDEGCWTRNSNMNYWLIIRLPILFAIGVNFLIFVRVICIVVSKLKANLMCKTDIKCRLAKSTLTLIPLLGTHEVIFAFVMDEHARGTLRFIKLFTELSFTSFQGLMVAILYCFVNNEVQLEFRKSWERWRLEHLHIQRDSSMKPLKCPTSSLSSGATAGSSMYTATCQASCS
Sequence of Glucagon receptor (Mus musculus) (Q61606 whole entry): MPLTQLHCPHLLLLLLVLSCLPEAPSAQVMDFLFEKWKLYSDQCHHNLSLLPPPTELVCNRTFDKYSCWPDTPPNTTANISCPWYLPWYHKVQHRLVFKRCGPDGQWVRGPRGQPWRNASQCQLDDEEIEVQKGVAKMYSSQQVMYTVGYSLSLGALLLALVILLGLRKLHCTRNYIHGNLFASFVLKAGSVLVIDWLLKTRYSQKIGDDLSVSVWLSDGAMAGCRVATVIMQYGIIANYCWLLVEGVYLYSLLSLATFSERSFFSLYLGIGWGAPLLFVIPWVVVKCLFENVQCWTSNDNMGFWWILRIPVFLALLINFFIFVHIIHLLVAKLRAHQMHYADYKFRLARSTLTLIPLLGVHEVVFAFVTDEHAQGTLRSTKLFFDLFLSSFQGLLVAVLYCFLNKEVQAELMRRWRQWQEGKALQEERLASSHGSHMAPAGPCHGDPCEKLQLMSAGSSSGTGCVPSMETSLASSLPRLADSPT

Structure (SMILES): CCCCCCCCCCCCCCCC(=O)N[C@@H](CCC(=O)NCCCC[C@H](NC(=O)[C@H](Cc1ccc(O)cc1)NC(=O)[C@H](CCCCN)NC(=O)[C@H](CO)NC(=O)[C@H](CCSC)NC(=O)[C@H](CC(=O)O)NC(=O)[C@H](CO)NC(=O)[C@@H](NC(=O)[C@H](Cc1ccccc1)NC(=O)[C@@H](NC(=O)CNC(=O)[C@H](CCC(N)=O)NC(=O)[C@H](CO)NC(=O)[C@@H](N)Cc1c[nH]cn1)[C@@H](C)O)[C@@H](C)O)C(=O)N[C@@H](CC(=O)O)C(=O)N[C@@H](CO)C(=O)N[C@@H](CCCNC(=N)N)C(=O)N[C@@H](CCCNC(=N)N)C(=O)N[C@@H](C)C(=O)N[C@@H](CCC(N)=O)C(=O)N[C@@H](CC(=O)O)C(=O)N[C@@H](Cc1ccccc1)C(=O)N[C@H](C(=O)N[C@@H](CC(=O)O)C(=O)N[C@@H](Cc1c[nH]c2ccccc12)C(=O)N[C@@H](CC(C)C)C(=O)N[C@@H](CCCCN)C(=O)N[C@@H](CC(N)=O)C(=O)NCC(=O)NCC(=O)N1CCC[C@H]1C(=O)N[C@@H](CO)C(=O)N[C@@H](CO)C(=O)NCC(=O)N[C@@H](C)C(=O)N1CCC[C@H]1C(=O)N1CCC[C@H]1C(=O)N1CCC[C@H]1C(=O)N[C@@H](CO)C(N)=O)C(C)C)C(=O)O (H-HSQGTFTSDMSKYK([γGlu-Palmitoyl])DSRRAQDFVDWLKNGGPSSGAPPPS-NH2)
- Activity (Mus musculus [1]): 30.6%
- Activity (Mus musculus [2]): Active
- Activity [3]: 482%
- Activity (Mus musculus [4]): Active
- Activity (Mus musculus [5]): Active
- Activity (Mus musculus [6]): Active
- Activity (Mus musculus [7]): Dose-Dependent Effect
- Activity (Mus musculus [8]): Active
- Activity [9]: Active
- Activity (Mus musculus [10]): Active
- Activity (Mus musculus [11]): Active
- Activity (Mus musculus [12]): Active
- Activity (Mus musculus [13]): Active
- Activity (Glucagon receptor [14]): 341%
- Activity (Mus musculus [15]): Active
- Activity (Mus musculus [16]): Active
- EC50 [17]: 11 pM
- EC50 (Glucagon receptor [18]): 27 pM
- Ratio EC50 [19]: 3
- Activity (Mus musculus [20]): Active
- Activity [21]: Active
- Activity (Mus musculus [22]): Active
- Ratio EC50 (Glucagon receptor [23]): 3
- Activity (Mus musculus [24]): Active
- Activity (Mus musculus [25]): Active
- Activity (Mus musculus [26]): Active
- Ratio EC50 [27]: 3
- Activity (Mus musculus [28]): inactive
